Assay results as given in the NIST ThermoML archive (doi:10.1016/j.jct.2013.10.034).
Numbers after ± are expanded uncertainties.

Experiment: xn = mol fraction of the nth substance listed
Conditions: 100 kPa, Liquid; for viscosity: Falling or rolling sphere viscometry; for mass density: Vibrating tube method

CCCC[N+]1(C)CCCC1.N#CN=C=[N-] [1-butyl-1-methylpyrrolidinium dicyanamide] + O
Conditions | mass density, 323.15 K [kg/m3] | mass density, 328.15 K [kg/m3] | mass density, 333.15 K [kg/m3] | mass density, 338.15 K [kg/m3] | mass density, 343.15 K [kg/m3] | viscosity, 323.15 K [mPa·s] | viscosity, 328.15 K [mPa·s] | viscosity, 333.15 K [mPa·s] | viscosity, 338.15 K [mPa·s] | viscosity, 343.15 K [mPa·s]
x1 = 0.0729 | 992.46 ± 0.21 | 989.39 ± 0.21 | 985.91 ± 0.21 | 982.26 ± 0.21 | 979.39 ± 0.21 | 2.233 ± 0.36 | 2.005 ± 0.32 | 1.807 ± 0.29 | 1.642 ± 0.26 | 1.496 ± 0.24
x1 = 0.1652 | 996.43 ± 0.22 | 993.17 ± 0.22 | 989.89 ± 0.22 | 986.61 ± 0.22 | 983.31 ± 0.22 | 3.985 ± 0.64 | 3.59 ± 0.57 | 3.196 ± 0.51 | 2.892 ± 0.46 | 2.593 ± 0.41
x1 = 0.2234 | 998.16 ± 0.23 | 994.93 ± 0.23 | 991.81 ± 0.23 | 988.61 ± 0.23 | 985.46 ± 0.23 | 4.99 ± 0.8 | 4.448 ± 0.71 | 3.98 ± 0.64 | 3.587 ± 0.57 | 3.24 ± 0.52
x1 = 0.3163 | 1000.13 ± 0.27 | 997.04 ± 0.27 | 994.04 ± 0.27 | 990.99 ± 0.27 | 988.01 ± 0.27 | 6.467 ± 1 | 5.765 ± 0.92 | 5.16 ± 0.83 | 4.649 ± 0.74 | 4.199 ± 0.67
x1 = 0.3548 | 1000.71 ± 0.29 | 997.72 ± 0.29 | 994.76 ± 0.29 | 991.74 ± 0.29 | 988.75 ± 0.29 | 7.043 ± 1.1 | 6.295 ± 1 | 5.643 ± 0.9 | 5.083 ± 0.81 | 4.587 ± 0.73
x1 = 0.4198 | 1001.58 ± 0.34 | 998.6 ± 0.34 | 995.72 ± 0.34 | 992.73 ± 0.34 | 989.8 ± 0.34 | 7.978 ± 1.3 | 7.116 ± 1.1 | 6.375 ± 1 | 5.746 ± 0.92 | 5.195 ± 0.83
x1 = 0.4762 | 1002.18 ± 0.39 | 999.26 ± 0.39 | 996.34 ± 0.39 | 993.46 ± 0.39 | 990.47 ± 0.39 | 8.763 ± 1.4 | 7.819 ± 1.3 | 7.009 ± 1.1 | 6.319 ± 1 | 5.717 ± 0.92
x1 = 0.5239 | 1002.64 ± 0.44 | 999.74 ± 0.44 | 996.85 ± 0.44 | 993.96 ± 0.43 | 991.03 ± 0.43 | 9.377 ± 1.5 | 8.369 ± 1.3 | 7.517 ± 1.2 | 6.784 ± 1.1 | 6.142 ± 0.98
x1 = 0.6244 | 1003.38 ± 0.57 | 1000.55 ± 0.57 | 997.67 ± 0.57 | 994.85 ± 0.56 | 991.95 ± 0.56 | 10.79 ± 1.7 | 9.629 ± 1.5 | 8.64 ± 1.4 | 7.795 ± 1.2 | 7.061 ± 1.1
x1 = 0.629 | 1003.41 ± 0.58 | 1000.57 ± 0.57 | 997.7 ± 0.57 | 994.9 ± 0.57 | 991.96 ± 0.57 | 10.85 ± 1.7 | 9.685 ± 1.6 | 8.691 ± 1.4 | 7.841 ± 1.3 | 7.103 ± 1.1
x1 = 0.711 | 1003.92 ± 0.71 | 1001.11 ± 0.71 | 998.24 ± 0.71 | 995.49 ± 0.7 | 992.62 ± 0.7 | 12 ± 1.9 | 10.71 ± 1.7 | 9.609 ± 1.5 | 8.671 ± 1.4 | 7.857 ± 1.3
x1 = 0.7413 | 1004.07 ± 0.77 | 1001.26 ± 0.76 | 998.46 ± 0.76 | 995.67 ± 0.76 | 992.85 ± 0.75 | 12.45 ± 2 | 11.1 ± 1.8 | 9.96 ± 1.6 | 9 ± 1.4 | 8.116 ± 1.3
x1 = 0.8776 | 1004.69 ± 1 | 1001.89 ± 1 | 999.13 ± 1 | 996.49 ± 1 | 993.62 ± 1 | 14.56 ± 2.3 | 12.96 ± 2.1 | 11.62 ± 1.9 | 10.48 ± 1.7 | 9.492 ± 1.5
x1 = 0.9732 | 1005.09 ± 1.3 | 1002.31 ± 1.2 | 999.61 ± 1.2 | 996.91 ± 1.2 | 994.09 ± 1.2 | 16.24 ± 2.6 | 14.43 ± 2.3 | 12.92 ± 2.1 | 11.64 ± 1.9 | 10.53 ± 1.7
x1 = 1 | 1005.23 ± 1.3 | 1002.48 ± 1.3 | 999.74 ± 1.3 | 997 ± 1.3 | 994.28 ± 1.3 | 16.72 ± 2.7 | 14.84 ± 2.4 | 13.28 ± 2.1 | 11.96 ± 1.9 | 10.82 ± 1.7
